The record followed here is patent US20210038607A1, “OXADIAZOLYLTHIOPHENE DERIVATIVES USEFUL AS HISTONE DEACETYLASE INHIBITORS” (Karus Therapeutics Limited, priority 2018, published 2021).

The target in one test is T1, Human HDAC9 (Homo sapiens, UniProt Q9UKV0).
T1 construct: amino acids 604-1066 with C-terminal His tag; His (C); host or cells: baculovirus expression system
The test is described as follows: HDAC9 biochemical assay, class IIa-specific substrate. The settings on record: read-out: HDAC Isoform IC50 (nM) 9. Summed up:
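HDAC9 residues 604-1066 (C-terminal His tag, baculovirus-expressed) at 0.06 ng/ul with 50 μM class IIa substrate Boc-Lys(trifluoroacetyl)-AMC in Tris-HCl pH 8.0 buffer with BSA and 1% DMSO. 30 min at room temperature, then developer added; fluorescence read at 360/460 nm Ex/Em.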

Test [1] concerns the target T2, Complex of human HDAC3 and human NCOR2 (Homo sapiens, UniProt O15379).
T2 construct: full length with C-terminal His tag, MW=49.7 kDa; His (C); host or cells: baculovirus expression system (co-expressed)
The test is described as follows: HDAC3 biochemical assay, AMC-labeled peptide substrate. The note with it: read-out: HDAC Isoform IC50 (nM) 3. As for the experimental part: (§1) Activity against all zinc-dependent HDACs 1 to 11 was assessed by using an acetylated AMC-labeled peptide substrate. The substrate RHKK(Ac)AMC was used for HDAC1, HDAC2, HDAC3, HDAC6 and HDAC10; the substrate used for HDAC8 was RHK(Ac)K(Ac)AMC. Activity against the class IIa HDACs (HDAC4, 5, 7, 9) and HDAC11 was determined using a class IIa-specific substrate, BOC-Lys(trifluoroacetyl)-AMC (“Trifluoroacetyl Lysine”; see Lahm et al, 2007, PNAS, 104, 17335-17340). All assays were based on the AMC-labeled substrate and developer combination.
(§2) The protocol involved a two-step reaction: first, the substrate with the acetylated lysine side chain is incubated with a sample containing HDAC activity, to produce the deacetylated products, which are then digested in the second step by the addition of developer to produce the fluorescent signal proportional to the amount of deacetylated substrates.
Complex of human HDAC3 (GenBank Accession No. NM_003883), full length with C-terminal His tag, MW=49.7 kDa, and human NCOR2 (amino acid 395-489) (GenBank Accession No. NM_006312), N-terminal GST tag, MW=37.6 kDa, co-expressed in baculovirus expression system.
(§3) Assay Buffer: 50 mM Tris-HCl, pH8.0, 137 mM NaCl, 2.7 mM KCl, 1 mM MgC2. Before use, 1 mg/mL BSA and DMSO are added.
HDAC3: 0.1 ng/ul HDAC3 and 50 μM HDAC substrate are in the reaction buffer with 1% DMSO final. Incubate for 1 hour at 30° C.
(§4) Stage 1: Deacetylation of substrate by incubation of HDAC enzymes with compounds
(§5) Stage 2: Development by addition of Developer to digest the deacetylated substrate, and generate the fluorescent colour; Detection: 360/460 Ex/Em

The target of the next test is T3, Human HDAC4 (Homo sapiens, UniProt P56524).
T3 construct: amino acids 627-1085 with N-terminal GST tag; GST (N); host or cells: baculovirus expression system
T3 sequence (P56524 627-1084 limits assumed): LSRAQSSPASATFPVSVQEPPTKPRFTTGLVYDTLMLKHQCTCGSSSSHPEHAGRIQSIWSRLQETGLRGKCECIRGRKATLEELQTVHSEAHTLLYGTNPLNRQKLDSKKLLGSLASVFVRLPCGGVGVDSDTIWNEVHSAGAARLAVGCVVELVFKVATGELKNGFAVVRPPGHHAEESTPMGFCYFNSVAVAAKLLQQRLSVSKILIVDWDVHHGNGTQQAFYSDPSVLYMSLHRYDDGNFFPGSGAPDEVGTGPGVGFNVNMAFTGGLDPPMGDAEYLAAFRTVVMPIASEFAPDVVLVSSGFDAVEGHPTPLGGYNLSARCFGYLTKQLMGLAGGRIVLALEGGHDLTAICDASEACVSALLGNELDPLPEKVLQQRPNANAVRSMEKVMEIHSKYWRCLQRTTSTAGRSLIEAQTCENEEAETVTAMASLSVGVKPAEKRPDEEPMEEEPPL
The test is described as follows: HDAC4 biochemical assay, class IIa-specific substrate. The note with it: read-out: HDAC Isoform IC50 (nM) 4. Summed up:
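GST-tagged human HDAC4 (aa 627-1085, baculovirus) at 0.004 ng/ul was incubated 30 min at room temperature with 50 μM class IIa-specific substrate BOC-Lys(trifluoroacetyl)-AMC in Tris-HCl pH 8.0 buffer with BSA, 1% DMSO. Developer then released AMC, read at 360/460 nm.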

A further test addresses T4, Human HDAC11 (Homo sapiens, UniProt Q96DB2).
T4 construct: Human HDAC11 (full length); His (N); host or cells: baculovirus expression system
T4 sequence (Q96DB2 1-347): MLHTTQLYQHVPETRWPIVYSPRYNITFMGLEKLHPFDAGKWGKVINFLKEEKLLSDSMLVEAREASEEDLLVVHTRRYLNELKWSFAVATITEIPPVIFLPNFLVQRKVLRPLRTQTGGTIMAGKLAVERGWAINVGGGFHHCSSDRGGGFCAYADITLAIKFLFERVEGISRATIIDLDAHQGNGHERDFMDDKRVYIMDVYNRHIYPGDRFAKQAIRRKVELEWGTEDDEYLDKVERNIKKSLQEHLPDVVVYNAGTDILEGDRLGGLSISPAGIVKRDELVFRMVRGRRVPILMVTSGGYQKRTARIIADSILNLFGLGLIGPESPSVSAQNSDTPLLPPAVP
The test is described as follows: HDAC11 biochemical assay, class IIa-specific substrate. The settings on record: read-out: HDAC Isoform IC50 (nM) 11. The procedure:
as §1, §2
Human HDAC11 (full length) (GenBank Accession No. NM_024827) with N-terminal His tag, MW=42.9 kDa, expressed in baculovirus expression system.
as §3
HDAC11: 5 ng/ul HDAC11 and 50 μMHDAC substrate are in the reaction buffer with 1% DMSO final. Incubate for 30 minutes at 30° C.
as §4, §5

The next test deals with T5, Human HDAC1 (Homo sapiens, UniProt Q13547).
T5 construct: full length with C-terminal His-tag and C-terminal FLAG-tag; His (C); FLAG (C); host or cells: baculovirus expression system
T5 sequence (Q13547 whole entry): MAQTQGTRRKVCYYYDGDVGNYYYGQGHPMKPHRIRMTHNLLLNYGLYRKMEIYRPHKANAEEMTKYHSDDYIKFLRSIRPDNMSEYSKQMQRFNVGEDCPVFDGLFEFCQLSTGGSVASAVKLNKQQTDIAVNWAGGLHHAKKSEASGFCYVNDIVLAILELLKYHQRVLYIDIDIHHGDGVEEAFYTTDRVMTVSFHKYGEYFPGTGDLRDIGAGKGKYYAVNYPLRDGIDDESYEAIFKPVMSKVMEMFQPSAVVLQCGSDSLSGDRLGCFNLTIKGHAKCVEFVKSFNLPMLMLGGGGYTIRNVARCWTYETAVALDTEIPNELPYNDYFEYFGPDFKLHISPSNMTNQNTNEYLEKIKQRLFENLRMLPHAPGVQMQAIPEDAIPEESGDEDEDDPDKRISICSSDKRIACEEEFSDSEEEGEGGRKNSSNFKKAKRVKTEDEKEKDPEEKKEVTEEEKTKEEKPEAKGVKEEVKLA
The test is described as follows: HDAC1 biochemical assay, AMC-labeled peptide substrate. The settings on record: read-out: HDAC Isoform IC50 (nM) 1. The gist of the method:
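Baculovirus-expressed full-length human HDAC1 with His and FLAG tags, 0.3 ng/ul, incubated 1 h at 30° C with compound and 50 μM RHKK(Ac)AMC in Tris pH 8.0 buffer with BSA and 1% DMSO. Developer then releases AMC from deacetylated substrate; fluorescence read at 360/460 nm.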

In the next test the target is T6, Human HDAC8 (Homo sapiens, UniProt Q9BY41).
T6 construct: full length with C-terminal His tag, MW=42.6 kDa; His (C); host or cells: baculovirus expression system
T6 sequence (Q9BY41 1-377): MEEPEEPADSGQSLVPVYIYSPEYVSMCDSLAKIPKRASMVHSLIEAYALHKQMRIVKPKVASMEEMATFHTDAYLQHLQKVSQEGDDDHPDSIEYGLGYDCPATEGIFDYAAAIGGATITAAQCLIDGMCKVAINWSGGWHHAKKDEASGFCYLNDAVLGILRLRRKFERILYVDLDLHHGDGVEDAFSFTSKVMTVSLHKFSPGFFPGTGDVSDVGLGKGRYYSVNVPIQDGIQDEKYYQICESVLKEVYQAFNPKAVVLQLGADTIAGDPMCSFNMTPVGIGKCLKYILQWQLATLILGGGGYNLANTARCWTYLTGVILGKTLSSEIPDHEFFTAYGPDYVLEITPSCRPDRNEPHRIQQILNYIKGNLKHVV
The test is described as follows: HDAC8 biochemical assay, AMC-labeled peptide substrate. The note with it: read-out: HDAC Isoform IC50 (nM) 8. The procedure: as §1, §2
Human HDAC8 (GenBankAccession No. NM_018486), full length with C-terminal His tag, MW=42.6 kDa, expressed in a baculovirus expression system.
as §3
HDAC8: 1 ng/ul HDAC8 and 100 µM HDAC8 substrate are in the reaction buffer with 1% DMSO final. Incubate for 2 hours at 30° C.
as §4, §5

T1 sequence (Q9UKV0 604-1066 isoform Q9UKV0-5): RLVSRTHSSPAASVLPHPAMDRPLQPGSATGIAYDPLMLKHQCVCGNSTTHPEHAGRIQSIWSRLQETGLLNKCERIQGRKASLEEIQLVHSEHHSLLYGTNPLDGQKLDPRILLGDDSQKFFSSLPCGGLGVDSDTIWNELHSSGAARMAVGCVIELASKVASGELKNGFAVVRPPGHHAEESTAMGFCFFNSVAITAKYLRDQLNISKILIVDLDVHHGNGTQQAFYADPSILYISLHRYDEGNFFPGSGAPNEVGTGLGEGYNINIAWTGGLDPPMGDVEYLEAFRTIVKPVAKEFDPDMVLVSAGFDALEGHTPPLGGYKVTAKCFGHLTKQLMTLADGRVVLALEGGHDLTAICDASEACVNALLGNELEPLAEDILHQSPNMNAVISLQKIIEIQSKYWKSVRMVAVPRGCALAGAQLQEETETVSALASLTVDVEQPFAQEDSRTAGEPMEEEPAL
T2 sequence (O15379 whole entry): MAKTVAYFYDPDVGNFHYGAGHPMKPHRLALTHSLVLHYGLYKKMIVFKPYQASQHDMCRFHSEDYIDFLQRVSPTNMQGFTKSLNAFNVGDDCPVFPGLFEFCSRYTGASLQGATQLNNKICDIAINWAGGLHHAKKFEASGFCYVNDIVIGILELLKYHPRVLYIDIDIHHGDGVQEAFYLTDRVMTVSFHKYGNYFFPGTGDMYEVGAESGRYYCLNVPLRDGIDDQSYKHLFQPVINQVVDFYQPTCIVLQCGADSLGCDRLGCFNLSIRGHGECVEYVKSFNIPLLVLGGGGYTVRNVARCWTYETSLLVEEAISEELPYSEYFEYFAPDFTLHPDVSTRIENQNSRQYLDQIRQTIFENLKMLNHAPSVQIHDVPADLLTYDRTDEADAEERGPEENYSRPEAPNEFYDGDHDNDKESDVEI
T2 sequence (Q9Y618 395-489 partner limits assumed): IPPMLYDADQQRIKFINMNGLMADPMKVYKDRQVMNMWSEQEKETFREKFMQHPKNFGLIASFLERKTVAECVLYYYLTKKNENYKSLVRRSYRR

By IC50 is commonly meant the concentration needed to halve the response being measured. As to `COC1CN(C(=O)c2cnnc(N(Cc3ccc(-c4noc(C(F)(F)F)n4)s3)c3cnccn3)c2)C1` [Example DZ, 5-(3-Methoxyazetidine-1-carbonyl)-N-(pyrazin-2-yl)-N-({5-[5-(trifluoromethyl)-1,2,4-oxadiazol-3-yl]thiophen-2-yl}methyl)pyridazin-3-amine], the IC50 at Human HDAC9 was not above 10000 nM; in test [1] it was more than 10000 nM; on Human HDAC4, not above 10000 nM; at Human HDAC11 it was more than 10000 nM; on Human HDAC1, more than 10000 nM; at Human HDAC8 it was not above 10000 nM.

Regarding `O=C(c1cnnc(N(Cc2ccc(-c3noc(C(F)(F)F)n3)s2)c2cnccn2)c1)N1CCCC1` [Example EA, N-(Pyrazin-2-yl)-5-(pyrrolidine-1-carbonyl)-N-({5-[5-(trifluoromethyl)-1,2,4-oxadiazol-3-yl]thiophen-2-yl}methyl)pyridazin-3-amine], the IC50 at Human HDAC9 is not above 10000 nM; in test [1] it was not above 10000 nM; at Human HDAC4 it was not above 10000 nM; at Human HDAC11, more than 10000 nM; on Human HDAC1 it was more than 10000 nM; at Human HDAC8, not above 10000 nM.

For the compound `O=C(c1cnnc(N(Cc2ccc(-c3noc(C(F)(F)F)n3)s2)c2cnccn2)c1)N1CCOCC1` [Example EB, 5-(Morpholine-4-carbonyl)-N-(pyrazin-2-yl)-N-({5-[5-(trifluoromethyl)-1,2,4-oxadiazol-3-yl]thiophen-2-yl}methyl)pyridazin-3-amine], the half-maximal inhibitory concentration (IC50) is not above 10000 nM on Human HDAC9; more than 10000 nM in test [1]; not above 10000 nM at Human HDAC4; more than 10000 nM on Human HDAC11; more than 10000 nM on Human HDAC1; not above 10000 nM at Human HDAC8.

Consider `CN1CCN(C(=O)c2cnnc(N(Cc3ccc(-c4noc(C(F)(F)F)n4)s3)c3cnccn3)c2)CC1` [Example EC, 5-(4-Methylpiperazine-1-carbonyl)-N-(pyrazin-2-yl)-N-({5-[5-(trifluoromethyl)-1,2,4-oxadiazol-3-yl]thiophen-2-yl}methyl)pyridazin-3-amine], for which the concentration for half-maximal inhibition (IC50) on Human HDAC9 was not above 10000 nM; in test [1], more than 10000 nM; on Human HDAC4 it was not above 10000 nM; at Human HDAC11 it was more than 10000 nM; on Human HDAC1 it was more than 10000 nM; at Human HDAC8 it was not above 10000 nM.

For `O=C(c1cnnc(N(Cc2ccc(-c3noc(C(F)(F)F)n3)s2)c2cnccn2)c1)N1CCS(=O)(=O)CC1` [Example ED, 4-{6-[(Pyrazin-2-yl)({5-[5-(trifluoromethyl)-1,2,4-oxadiazol-3-yl]thiophen-2-yl}methyl)amino]pyridazine-4-carbonyl}-1λ^6-thiomorpholine-1,1-dione], the IC50 at Human HDAC9 was not above 10000 nM; in test [1], more than 10000 nM; at Human HDAC4, not above 10000 nM; on Human HDAC11, more than 10000 nM; on Human HDAC1 it was more than 10000 nM; at Human HDAC8 it was not above 10000 nM.

Take `N#Cc1cnnc(N(Cc2ccc(-c3noc(C(F)(F)F)n3)s2)c2cnccn2)c1` [Example EE, 6-[(Pyrazin-2-yl)({5-[5-(trifluoromethyl)-1,2,4-oxadiazol-3-yl]thiophen-2-yl}methyl)amino]pyridazine-4-carbonitrile]: the half-maximal inhibitory concentration (IC50) was not above 10000 nM on Human HDAC9; more than 10000 nM in test [1]; not above 10000 nM on Human HDAC4; more than 10000 nM on Human HDAC11; more than 10000 nM at Human HDAC1; not above 10000 nM on Human HDAC8.

On to `FC(F)(F)c1cnnc(N(Cc2ccc(-c3noc(C(F)(F)F)n3)s2)c2cnccn2)c1` [Example EF, N-(Pyrazin-2-yl)-5-(trifluoromethyl)-N-({5-[5-(trifluoromethyl)-1,2,4-oxadiazol-3-yl]thiophen-2-yl}methyl)pyridazin-3-amine], for which the IC50 is not above 10000 nM at Human HDAC9; more than 10000 nM in test [1]; not above 10000 nM on Human HDAC4; more than 10000 nM at Human HDAC11; more than 10000 nM on Human HDAC1; not above 10000 nM at Human HDAC8.

`O=C(O)c1cnnc(N(Cc2ccc(-c3noc(C(F)(F)F)n3)s2)c2cc(C(F)(F)F)cnn2)c1` [Example ES, 6-[({5-[5-(Trifluoromethyl)-1,2,4-oxadiazol-3-yl]thiophen-2-yl}methyl)[5-(trifluoromethyl)pyridazin-3-yl]amino]pyridazine-4-carboxylicacid]: the IC50 on Human HDAC9 is more than 10000 nM; in test [1], more than 10000 nM; at Human HDAC4 it was not above 10000 nM; at Human HDAC11, more than 10000 nM; at Human HDAC1 it was more than 10000 nM; on Human HDAC8, not above 10000 nM.

In the case of `O=C(O)c1ccc(N(Cc2sc(-c3noc(C(F)(F)F)n3)cc2F)c2cnccn2)nn1` [Example EZ, 6-[({3-Fluoro-5-[5-(trifluoromethyl)-1,2,4-oxadiazol-3-yl]thiophen-2-yl}methyl)(pyrazin-2-yl)amino]pyridazine-3-carboxylic acid], the IC50 was not above 10000 nM at Human HDAC9; more than 10000 nM in test [1]; not above 10000 nM at Human HDAC4; more than 10000 nM at Human HDAC11; more than 10000 nM on Human HDAC1; not above 10000 nM at Human HDAC8.

Turning to `O=C(O)c1cnnc(N(Cc2sc(-c3noc(C(F)(F)F)n3)cc2F)c2cnccn2)c1` [Example FA, 6-[({3-fluoro-5-[5-(trifluoromethyl)-1,2,4-oxadiazol-3-yl]thiophen-2-yl}methyl)(pyrazin-2-yl)amino]pyridazine-4-carboxylic acid], the IC50 at Human HDAC9 was not above 10000 nM; in test [1] it was not above 10000 nM; on Human HDAC4, not above 10000 nM; at Human HDAC11, more than 10000 nM; on Human HDAC1 it was more than 10000 nM; on Human HDAC8, not above 10000 nM.
